Measured values as given in BindingDB's records for doi:10.1016/j.bmcl.2012.11.020 (Glaxosmithkline, 2012).
pIC50: −log10 of the molar value.

Biological target: Serine/threonine-protein kinase B-raf (Homo sapiens, UniProt P15056)
Test: Inhibition of B-Raf (unknown origin) expressed in mouse 3T3 cells co-expressing FLAG-tagged MEK1 assessed as inhibition of MEK1 phosphorylation after 2 hrs by ELISA

Chain of Serine/threonine-protein kinase B-raf (P15056 whole entry): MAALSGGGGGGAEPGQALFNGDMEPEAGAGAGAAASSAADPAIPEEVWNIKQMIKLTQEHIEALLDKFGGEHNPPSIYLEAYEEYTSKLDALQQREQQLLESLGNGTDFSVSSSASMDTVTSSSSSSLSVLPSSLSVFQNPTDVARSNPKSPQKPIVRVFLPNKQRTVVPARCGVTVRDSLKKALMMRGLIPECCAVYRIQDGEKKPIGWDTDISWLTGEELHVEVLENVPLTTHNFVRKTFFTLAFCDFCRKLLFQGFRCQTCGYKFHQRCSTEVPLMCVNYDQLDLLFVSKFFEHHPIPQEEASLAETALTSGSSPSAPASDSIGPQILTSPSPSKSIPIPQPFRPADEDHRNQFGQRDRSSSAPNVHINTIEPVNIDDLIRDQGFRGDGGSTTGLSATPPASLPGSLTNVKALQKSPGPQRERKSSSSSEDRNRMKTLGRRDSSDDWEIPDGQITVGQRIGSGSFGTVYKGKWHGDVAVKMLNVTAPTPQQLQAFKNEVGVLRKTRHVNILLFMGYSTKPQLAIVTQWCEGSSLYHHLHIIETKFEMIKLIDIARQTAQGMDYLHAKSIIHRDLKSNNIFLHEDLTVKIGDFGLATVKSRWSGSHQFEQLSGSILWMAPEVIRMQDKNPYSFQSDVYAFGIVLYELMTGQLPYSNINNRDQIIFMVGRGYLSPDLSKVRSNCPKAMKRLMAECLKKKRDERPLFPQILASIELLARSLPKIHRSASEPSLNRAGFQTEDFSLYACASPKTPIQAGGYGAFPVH

SMILES | pIC50
Nc1ncc(-c2cccnc2)c2scc(-c3cccc(NC(=O)Nc4ccc(OCc5ccccc5)cc4)c3)c12 | < 5.00
COc1cccc(NC(=O)Nc2cccc(-c3csc4c(-c5cccnc5)cnc(N)c34)c2)c1 | 6.15
Nc1ncc(-c2cccnc2)c2scc(-c3cccc(NC(=O)NC4CCCCC4)c3)c12 | 5.39
Cc1noc(C)c1NC(=O)Nc1cccc(-c2csc3c(-c4cccnc4)cnc(N)c23)c1 | < 5.00
Nc1ncc(-c2cccnc2)c2scc(-c3cccc(NC(=O)C4CCCCC4)c3)c12 | < 5.00
